In patent publication US7767854B2, “N-substituted phenylacetamide derivative and pharmaceutical composition containing the same” (Dainippon Sumitomo Pharma Co., Ltd., priority 2005, dated 2010):

Experiments:
[1] = Analgesic effect of prior-art compounds (background statement)
[2] = test system: Slc: Hartley male guinea-pigs; assay: Skin sensitization test (Adjuvant and Patch Test, allergenic potency); format: in vivo, guinea-pig; settings: 1% solution patches, FCA pre-treatment, observed 24 and 48 hours after initiation
Experimental: Experiment 3. Skin Sensitization Test (Evaluation of Allergenic Potency)
The purpose of the present experiment is to investigate if each administered compound of the invention may induce allergic contact dermatitis. In detail, the test was carried out using Freund's complete adjuvant (FCA) according to the Adjuvant and Patch Test [Sato, et al., Contact Dermatitis, 7, 225-237 (1981)], which is described in “Description of Guideline on Nonclinical Studies of Drugs (Iyakuhin Hirinshou-shiken Guideline Kaisetsu), Chapter 8, P.72-76, Skin sensitization test” [edited by the Ministry of Health and Welfare, Pharmaceutical Affairs Bureau, Yakuji-Nippou-sha (1997)]. Slc: Hartley male guinea-pigs were used for the test. As a test compound, each the compound of the invention and DNCB (1-chloro-2,4-dinitrobenzene) as a positive control drug were dissolved in 70% ethanol/water solution and were administered to the animals. The 70% ethanol/water solution was used as vehicle solvent (reference).
In detail, after FCA emulsion was intradermally administered around the shaved back part of the guinea-pig as a pre-treatment, each patch containing 1% test compound solution or reference (solvent) solution was closedly attached once a day for consecutive 3 days in total (Primary Sensitization). On 7th day after the Primary Sensitization, 10% sodium lauryl sulfate ointment was openly applied at the same part for 24 hours, and then each patch containing 1% test compound solution or reference (solvent) solution was closedly attached again for 48 hours (Second Sensitization). 14 days after the Second Sensitization treatment, each test compound (maximum concentration: 1%) was applied for 24 hours using patch in the same manner (initiation). 24 and 48 hours after the application, the reaction (erythema, edema) on the applied skin part was observed and was scored (0-3) based on the criteria of Magnusson and Kligman [J. Invest. Dermatol., 52, 268-276 (1969)], and then the degree of skin sensitization induced by each of compound was evaluated.

male Std: Wistar rats = assay: Pain test by plantar thermal stimuli (plantar test); format: in vivo; settings: Rattus norvegicus, 4 h, 50 μl of 0.03% (W/V) solution i.pl. into right hind-paw; 4 hours after administration; cut-off 25 seconds; read-out: % MPE (percent maximum possible effect, withdrawal latency)
Experimental: Experiment 1: Pain Test by Plantar Thermal Stimuli (Plantar Test)
In the present experiment, the analgesic effect of the compounds of the invention was evaluated by the measurements of withdrawal latency to noxious thermal stimuli, according to the methods of Hargreaves, et al., [Pain, 32, 77-88 (1988)] and Field, et al., [J. Pharmacol. Exp. Ther., 282, 1242-1246 (1997)].
In detail, the experiment was carried out using male Std: Wistar rats (4 rats/group; body weight, 170-220 g) and a plantar test device (Model 7370, Ugo Basile) with infrared beam as a heat source. The rat was put into an experimental cage that is an acrylic box whose bottom is made of glass and was habituated therein. Then, the infrared beam was radiated to the plantar surface of right hind-paw thereof through the floor glass, and the withdrawal latency was measured every 5 minutes, 3 times. The intension of the infrared beam was adjusted so that the pre-drug administration latency was about 10 seconds. The cut-off time was set at 25 seconds in order to prevent a paw burn. The average of the latencies was calculated, and then it was defined as the value of the pre-drug administration latency of the test compound.
Next day, 50 μl of each solution of the test compounds [the compounds of the invention, the compounds of the comparative Examples and capsaicin (Sigma, U.S.A.)] or 50 μl of vehicle solvent (reference) was given to a right hind-paw of the rat by intraplantar injection (i. pl.) using a micro-syringe. The test compound was dissolved in a saline solution containing 10% Tween 80 (Sigma, U.S.A) and 10% ethanol to give a 0.03% (W/V) solution. The saline solution containing 10% Tween 80 and 10% ethanol was used as reference. Four hours after i.pl. administration of each the test compound or the reference to the rats, the experiment mentioned above was carried out, and then the post-drug administration latency was measured. The analgesic effects thereof were calculated with the following formula, which was known as a percent maximum possible effect (% MPE). % MPE=[(the value of post-drug latency−the value of pre-drug latency)/(25*−the value of pre-drug latency)]×100 *: cut-off time

male Std:ddY mice = assay: Study for irritancy (eye-wiping test); format: in vivo, mouse
Experimental: Experiment 2: Study for Irritancy (Eye-Wiping Test)
In this experiment, we examined the irritancy of the compounds of the invention. The experiment was carried out according to Jancso, et al., [Acta. Physiol. Acad. Sci. Hung., 19, 113-131 (1961)] and Szallasi, et al., [Brit. J. Pharmacol., 119, 283-290 (1996)]. In more detail, the compounds of the invention were dissolved in a physiological saline solution containing 5% Tween 80 and 5% ethanol to prepare each 2 different concentrations (2 concentrations: 10 and 30 μg/ml). One drop of each the solution was dropped into an eye of male Std:ddY mice (5 […]/group; body weight, 20-30 g). The protective wiping behaviors with its front paws were counted for every one minute from 0 to 5 minutes after the administration. Then, the average counts in each one minute were calculated, and the maximum value among the averages was defined as the representative value. Using the saline solution containing […] and 5% ethanol as a vehicle solvent, the test mentioned above was also carried out.

female CBA/JN mice = assay: Skin sensitization test (Local Lymph Node Assay with BrdU); format: in vivo, mouse; settings: 1 and 3% solutions in DMF on both auricles, 3 days
Experimental: Experiment 4: Skin Sensitization Test (Local Lymph Node Assay)
The purpose of the present experiment is to investigate if each administered compound of the invention can induce allergic contact dermatitis. In detail, the skin sensitization effect of the compounds of the invention was examined using BrdU (bromodeoxyuridine) by LLNA (Local Lymph Node Assay).
In more detail, the test was carried out according to the method by Suda, A. et al. (Local lymph node assay with non-radioisotope alternative endpoints. J. Toxicol. Sci., 27(3):205-218, 2002). Namely, the compounds of the invention were dissolved in DMF (N,N-dimethylformamide) to prepare 1 and 3% solutions, which were applied to both auricles of female CBA/JN mice aged 9 weeks for consecutive 3 days (1st day to 3rd day)(25 μl/one-side ear, once a day)
As positive control drugs, DNCB (dinitrochlorobenzene, a potently sensitizing drug) and HCA (α-hexylcinnamaldehyde, a weakly sensitizing drug) were used. After the final application was finished (on 3rd day), ALZET Osmotic Pump containing 100 μl of 200 mg/mL BrdU (releasing rate: 0.5 μl/hour) was implanted into the ventral skin under pentobarbital anesthesia, and BrdU was exposed sustainedly. On 9th day from starting day to apply the compounds of the invention, the animals were euthanized by cervical dislocation, and parotid lymph nodes of both their ears were taken out. The nodes were weighed and homogenized in PBS to prepare a single cell suspension which was measured by a blood test device: ADVIA (Bayer) to count the number of the cells. Next, the cells were immunofluorescently stained with FITC-labeled anti-BrdU antibody using a BrdU Flow Kit (BD Biosciences), which were measured and analyzed using a flow cytometer: FACS Calibur (Becton Dickinson) to give BrdU-positive cell percentage. And then, the BrdU-positive cell percentage was multiplied by the number of the node cells to give the number of the BrdU-positive cells. Additionally, on each parameter, the average value for the test compound group was divided by the average value for the reference (solvent) group to give a stimulation Index (SI). We judged that the compound had skin sensitization activity when the SI of BrdU-positive cell number was 2 or more, in principle.

Structure (SMILES) | analgesic effect [1] | skin sensitization (erythema, edema score) [2] | change in vivo at 300 µg/mL (male Std: Wistar rats) [%] | Representative value of counts of protective wiping behaviors (max. counts, counts/min) (male Std:ddY mice; 10 μg/ml, one drop into eye, 0 to 5 minutes) [counts/min] | irritancy (protective wiping behaviors, in words) (male Std:ddY mice; capsaicin 10 μg/ml, Example compounds up to 30 μg/ml) | skin sensitization (SI of BrdU-positive cell number) (female CBA/JN mice)
COc1cc(CC(=O)NC2CCC(C)CC2)ccc1O (stereo not shown) | little analgesic effect |  |  |  |  | 
CCCCC1=CCC(NC(=O)Cc2ccc(O)c(OC)c2)CC1 (single isomer, unassigned; (+)) [Example 43, (+)-N-(4-butyl-3-cyclohexenyl)-2-(4-hydroxy-3-methoxyphenyl)acetamide] |  | no skin sensitization |  |  |  | 
CCCC=C1CCC(NC(=O)Cc2ccc(O)c(OC)c2)CC1 (single isomer, unassigned; (+)) [Example 45, (+)-N-(4-butylidenecyclohexyl)-2-(4-hydroxy-3-methoxyphenyl)acetamide] |  | no skin sensitization | 73.9 |  |  | 
CCCCC1=CCC(NC(=O)Cc2ccc(O)c(OC)c2)CC1 (single isomer, unassigned; (-)) [Example 44, (−)-N-(4-butyl-3-cyclohexenyl)-2-(4-hydroxy-3-methoxyphenyl)acetamide] |  | no skin sensitization |  |  |  | 
CCCC=C1CCC(NC(=O)Cc2ccc(O)c(OC)c2)CC1 (single isomer, unassigned; (-)) [Example 46, (−)-N-(4-butylidenecyclohexyl)-2-(4-hydroxy-3-methoxyphenyl)acetamide] |  | no skin sensitization |  |  |  | 
COc1cc(CNC(=O)CCCC/C=C/C(C)C)ccc1O [Capsaicin, (E)-8-methyl-N-vanillyl-6-nonenamide] |  |  | 39.2 | 20.0 | frequent protective wiping behaviors | 
CCCCC1=CCC(NC(=O)Cc2ccc(O)c(OC)c2)CC1 (stereo not shown) [Example 1, N-(4-butyl-3-cyclohexenyl)-2-(4-hydroxy-3-methoxyphenyl)acetamide] |  | no skin sensitization | 69.9 |  |  | weak skin sensitization
CCCCC1CCC(NC(=O)Cc2ccc(O)c(OC)c2)CC1 (stereo not shown) [Example 2, N-(4-butylcyclohexyl)-2-(4-hydroxy-3-methoxyphenyl)acetamide] |  | no skin sensitization | 81.4 |  |  | weak skin sensitization
CCCCC[C@H]1CC[C@@H](NC(=O)Cc2ccc(O)c(OC)c2)CC1 [Example 8] |  |  | 88.4 |  |  | weak skin sensitization
CCCC=C1CCC(NC(=O)Cc2ccc(O)c(OC)c2)CC1 (stereo not shown) [Example 10, N-(4-butylidenecyclohexyl)-2-(4-hydroxy-3-methoxyphenyl)acetamide] |  |  | 89.4 |  |  | weak skin sensitization
CC/C=C\[C@H]1CC[C@H](NC(=O)Cc2ccc(O)c(OC)c2)CC1 [Example 16] |  | no skin sensitization | 94.1 |  |  | weak skin sensitization
C/C=C\[C@H]1CC[C@H](NC(=O)Cc2ccc(O)c(OC)c2)CC1 [Example 22] |  | no skin sensitization | 54.7 |  |  | weak skin sensitization
COc1cc(CC(=O)N[C@H]2CC[C@H](CCC(C)C)CC2)ccc1O [Example 26, 2-(4-hydroxy-3-methoxyphenyl)-N-[trans-4-(3-methylbutyl)cyclohexyl]acetamide] |  |  | 96.3 |  |  | weak skin sensitization
COc1cc(CC(=O)N[C@H]2CC[C@H](CCCC(C)C)CC2)ccc1O [Example 27] |  | no skin sensitization | 89.5 |  |  | weak skin sensitization
CCCCCO[C@H]1CC[C@H](NC(=O)Cc2ccc(O)c(OC)c2)CC1 [Example 36] |  |  | 50.5 |  |  | weak skin sensitization
COc1cc(CC(=O)N[C@H]2CC[C@H](CC=C(C)C)CC2)ccc1O [Example 42, 2-(4-hydroxy-3-methoxyphenyl)-N-[trans-4-(3-methyl-2-butenyl)cyclohexyl]acetamide] |  |  | 85 |  |  | weak skin sensitization
